From publication PMC4076210, “Discovery of Novel AKT Inhibitors with Enhanced Anti-Tumor Effects in Combination with the MEK Inhibitor” (PLoS ONE, 2014) come the findings set out here.

Assay in all cases: Kinase panel
Holding throughout (assay type): biochemical

The target in one experiment is T1, SAPK3(h) (Homo sapiens, UniProt P53778).
T1 construct: purchased Millipore KinaseProfiler
T1 sequence (P53778 1-367): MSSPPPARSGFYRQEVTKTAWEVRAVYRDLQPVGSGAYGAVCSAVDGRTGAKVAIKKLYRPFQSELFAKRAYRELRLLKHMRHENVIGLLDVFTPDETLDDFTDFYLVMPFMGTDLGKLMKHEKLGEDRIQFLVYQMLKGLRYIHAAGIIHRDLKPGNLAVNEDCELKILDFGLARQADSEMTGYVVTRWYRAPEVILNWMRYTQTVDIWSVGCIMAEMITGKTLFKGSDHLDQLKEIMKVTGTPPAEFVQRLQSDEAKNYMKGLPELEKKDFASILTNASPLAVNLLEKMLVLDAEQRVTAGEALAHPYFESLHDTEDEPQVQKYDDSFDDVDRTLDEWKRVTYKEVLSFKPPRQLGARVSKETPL

Another experiment addresses T2, FGFR4(h) (Homo sapiens, UniProt P22455).
T2 construct: purchased Millipore KinaseProfiler

The next experiment has as its target T3, Fms(h) (Homo sapiens, UniProt P07333).
T3 construct: purchased Millipore KinaseProfiler

In another experiment the target is T4, HIPK3(h) (Homo sapiens, UniProt Q9H422).
T4 construct: purchased Millipore KinaseProfiler

Another experiment deals with T5, PKD2(h) (Homo sapiens, UniProt Q9BZL6).
T5 construct: purchased Millipore KinaseProfiler
T5 sequence (Q9BZL6 1-878): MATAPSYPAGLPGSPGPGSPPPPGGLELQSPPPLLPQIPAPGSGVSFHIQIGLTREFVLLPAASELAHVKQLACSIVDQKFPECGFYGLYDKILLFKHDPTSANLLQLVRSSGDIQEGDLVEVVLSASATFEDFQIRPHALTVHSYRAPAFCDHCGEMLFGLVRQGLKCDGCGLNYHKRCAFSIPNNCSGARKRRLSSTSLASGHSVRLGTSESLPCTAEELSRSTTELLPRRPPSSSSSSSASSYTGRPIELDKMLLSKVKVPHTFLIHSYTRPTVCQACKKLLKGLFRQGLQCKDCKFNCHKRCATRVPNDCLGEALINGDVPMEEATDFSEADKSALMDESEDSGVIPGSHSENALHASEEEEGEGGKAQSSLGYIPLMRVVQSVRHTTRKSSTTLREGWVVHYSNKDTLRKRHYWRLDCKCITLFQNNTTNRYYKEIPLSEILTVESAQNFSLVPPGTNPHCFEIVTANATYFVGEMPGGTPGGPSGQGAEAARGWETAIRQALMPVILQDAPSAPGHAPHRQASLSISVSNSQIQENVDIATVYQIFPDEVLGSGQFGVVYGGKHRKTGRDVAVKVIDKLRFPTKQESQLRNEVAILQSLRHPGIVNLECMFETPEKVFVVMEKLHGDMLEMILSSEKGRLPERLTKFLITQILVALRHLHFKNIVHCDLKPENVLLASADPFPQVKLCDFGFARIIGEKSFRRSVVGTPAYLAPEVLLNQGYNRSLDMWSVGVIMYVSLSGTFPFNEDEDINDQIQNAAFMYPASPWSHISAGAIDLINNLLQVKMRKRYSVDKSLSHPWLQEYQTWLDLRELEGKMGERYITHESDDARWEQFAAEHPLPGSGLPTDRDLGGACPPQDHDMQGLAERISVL

In the next experiment the target is T6, PAK6(h) (Homo sapiens, UniProt Q9NQU5).
T6 construct: purchased Millipore KinaseProfiler

A further experiment has as its target T7, GCK(h) (Homo sapiens, UniProt Q12851).
T7 construct: purchased Millipore KinaseProfiler
T7 sequence (Q12851 1-820): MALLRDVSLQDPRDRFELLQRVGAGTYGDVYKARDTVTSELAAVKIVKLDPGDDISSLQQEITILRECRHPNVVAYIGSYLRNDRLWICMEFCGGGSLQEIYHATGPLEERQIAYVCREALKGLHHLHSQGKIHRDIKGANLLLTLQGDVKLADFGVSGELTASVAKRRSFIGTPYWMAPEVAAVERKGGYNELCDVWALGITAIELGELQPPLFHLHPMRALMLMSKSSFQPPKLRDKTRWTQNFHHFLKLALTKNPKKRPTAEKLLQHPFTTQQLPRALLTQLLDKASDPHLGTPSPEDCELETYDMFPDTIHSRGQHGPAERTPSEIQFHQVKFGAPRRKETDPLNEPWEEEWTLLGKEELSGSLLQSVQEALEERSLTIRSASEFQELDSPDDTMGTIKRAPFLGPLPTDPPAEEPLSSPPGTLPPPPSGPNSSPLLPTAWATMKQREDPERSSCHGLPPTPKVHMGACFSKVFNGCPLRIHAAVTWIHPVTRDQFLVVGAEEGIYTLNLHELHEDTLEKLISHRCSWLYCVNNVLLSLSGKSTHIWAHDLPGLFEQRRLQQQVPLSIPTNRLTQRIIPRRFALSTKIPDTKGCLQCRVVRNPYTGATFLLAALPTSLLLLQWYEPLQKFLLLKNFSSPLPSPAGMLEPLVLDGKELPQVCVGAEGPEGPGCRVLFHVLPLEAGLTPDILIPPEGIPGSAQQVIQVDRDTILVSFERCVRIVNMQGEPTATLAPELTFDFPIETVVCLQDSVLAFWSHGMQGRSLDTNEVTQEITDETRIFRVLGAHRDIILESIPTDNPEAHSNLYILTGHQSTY

The structures appear in SMILES notation. Like-named read-outs stand apart in the source and are kept apart here.

T6 sequence (Q9NQU5 whole entry): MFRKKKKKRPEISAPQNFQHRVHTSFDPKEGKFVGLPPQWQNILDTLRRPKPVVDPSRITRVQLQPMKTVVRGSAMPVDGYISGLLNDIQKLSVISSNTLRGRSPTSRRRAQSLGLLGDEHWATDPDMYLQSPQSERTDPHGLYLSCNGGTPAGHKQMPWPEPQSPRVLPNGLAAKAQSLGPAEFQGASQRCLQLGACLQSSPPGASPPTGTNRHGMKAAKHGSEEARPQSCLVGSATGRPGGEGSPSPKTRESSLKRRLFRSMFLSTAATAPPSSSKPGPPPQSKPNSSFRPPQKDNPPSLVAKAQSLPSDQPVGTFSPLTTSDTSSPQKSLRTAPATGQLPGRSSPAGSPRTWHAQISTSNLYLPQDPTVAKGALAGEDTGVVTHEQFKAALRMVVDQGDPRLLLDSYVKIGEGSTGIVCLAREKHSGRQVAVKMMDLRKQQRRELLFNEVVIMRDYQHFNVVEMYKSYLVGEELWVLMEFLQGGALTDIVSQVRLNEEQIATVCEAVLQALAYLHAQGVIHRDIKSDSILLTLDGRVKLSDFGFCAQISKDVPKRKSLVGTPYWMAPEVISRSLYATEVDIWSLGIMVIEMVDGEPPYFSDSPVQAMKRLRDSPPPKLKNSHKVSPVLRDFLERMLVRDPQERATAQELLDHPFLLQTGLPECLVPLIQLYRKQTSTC
T4 sequence (Q9H422 whole entry): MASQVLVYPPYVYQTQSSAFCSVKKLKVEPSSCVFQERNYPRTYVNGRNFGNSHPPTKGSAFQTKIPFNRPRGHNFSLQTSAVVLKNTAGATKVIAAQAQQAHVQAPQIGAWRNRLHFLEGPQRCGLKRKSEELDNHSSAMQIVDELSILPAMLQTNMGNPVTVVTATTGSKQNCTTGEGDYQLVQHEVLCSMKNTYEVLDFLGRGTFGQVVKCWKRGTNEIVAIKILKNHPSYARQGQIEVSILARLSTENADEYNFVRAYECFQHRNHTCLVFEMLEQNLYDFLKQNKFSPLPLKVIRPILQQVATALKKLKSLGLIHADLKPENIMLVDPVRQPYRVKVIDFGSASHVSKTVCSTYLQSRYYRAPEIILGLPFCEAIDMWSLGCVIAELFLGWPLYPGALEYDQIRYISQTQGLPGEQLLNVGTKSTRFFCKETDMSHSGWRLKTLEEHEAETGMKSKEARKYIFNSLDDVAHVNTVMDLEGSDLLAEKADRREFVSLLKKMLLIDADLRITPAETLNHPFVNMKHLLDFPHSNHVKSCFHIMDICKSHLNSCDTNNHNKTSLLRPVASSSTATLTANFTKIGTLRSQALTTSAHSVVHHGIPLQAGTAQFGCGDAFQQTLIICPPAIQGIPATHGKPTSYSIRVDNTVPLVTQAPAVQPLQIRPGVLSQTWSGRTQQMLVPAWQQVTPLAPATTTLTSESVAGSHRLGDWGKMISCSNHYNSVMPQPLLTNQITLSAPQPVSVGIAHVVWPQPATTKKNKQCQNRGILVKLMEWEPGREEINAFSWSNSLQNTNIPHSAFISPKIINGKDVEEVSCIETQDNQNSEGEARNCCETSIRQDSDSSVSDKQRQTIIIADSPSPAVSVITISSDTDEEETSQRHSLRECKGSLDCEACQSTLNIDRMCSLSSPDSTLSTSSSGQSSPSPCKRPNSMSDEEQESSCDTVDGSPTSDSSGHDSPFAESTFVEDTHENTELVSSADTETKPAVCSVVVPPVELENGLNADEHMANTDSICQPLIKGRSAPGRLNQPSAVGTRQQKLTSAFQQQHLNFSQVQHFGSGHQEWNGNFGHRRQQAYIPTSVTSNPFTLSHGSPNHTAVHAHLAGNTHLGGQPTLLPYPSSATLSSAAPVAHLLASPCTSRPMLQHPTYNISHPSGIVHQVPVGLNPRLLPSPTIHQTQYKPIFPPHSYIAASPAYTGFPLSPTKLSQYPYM
T2 sequence (P22455 22-802): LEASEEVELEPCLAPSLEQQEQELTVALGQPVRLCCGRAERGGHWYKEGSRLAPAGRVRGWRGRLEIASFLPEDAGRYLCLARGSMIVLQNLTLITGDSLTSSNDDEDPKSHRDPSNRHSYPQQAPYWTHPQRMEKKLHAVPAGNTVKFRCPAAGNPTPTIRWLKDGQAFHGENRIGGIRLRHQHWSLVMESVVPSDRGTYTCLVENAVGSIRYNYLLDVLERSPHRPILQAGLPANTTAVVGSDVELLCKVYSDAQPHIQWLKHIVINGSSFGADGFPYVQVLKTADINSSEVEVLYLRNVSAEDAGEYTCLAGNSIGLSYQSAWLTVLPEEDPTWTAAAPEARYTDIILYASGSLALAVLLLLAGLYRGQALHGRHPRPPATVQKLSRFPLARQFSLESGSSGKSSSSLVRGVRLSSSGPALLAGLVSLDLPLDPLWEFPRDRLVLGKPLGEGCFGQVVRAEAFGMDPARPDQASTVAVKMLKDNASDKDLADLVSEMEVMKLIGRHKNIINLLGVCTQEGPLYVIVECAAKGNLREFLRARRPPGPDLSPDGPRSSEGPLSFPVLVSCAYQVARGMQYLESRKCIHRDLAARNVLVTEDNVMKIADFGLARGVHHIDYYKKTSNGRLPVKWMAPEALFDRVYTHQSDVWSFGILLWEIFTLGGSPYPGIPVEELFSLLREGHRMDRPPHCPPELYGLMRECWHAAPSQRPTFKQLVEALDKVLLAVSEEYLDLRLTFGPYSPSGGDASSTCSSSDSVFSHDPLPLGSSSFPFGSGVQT
T3 sequence (P07333 20-972): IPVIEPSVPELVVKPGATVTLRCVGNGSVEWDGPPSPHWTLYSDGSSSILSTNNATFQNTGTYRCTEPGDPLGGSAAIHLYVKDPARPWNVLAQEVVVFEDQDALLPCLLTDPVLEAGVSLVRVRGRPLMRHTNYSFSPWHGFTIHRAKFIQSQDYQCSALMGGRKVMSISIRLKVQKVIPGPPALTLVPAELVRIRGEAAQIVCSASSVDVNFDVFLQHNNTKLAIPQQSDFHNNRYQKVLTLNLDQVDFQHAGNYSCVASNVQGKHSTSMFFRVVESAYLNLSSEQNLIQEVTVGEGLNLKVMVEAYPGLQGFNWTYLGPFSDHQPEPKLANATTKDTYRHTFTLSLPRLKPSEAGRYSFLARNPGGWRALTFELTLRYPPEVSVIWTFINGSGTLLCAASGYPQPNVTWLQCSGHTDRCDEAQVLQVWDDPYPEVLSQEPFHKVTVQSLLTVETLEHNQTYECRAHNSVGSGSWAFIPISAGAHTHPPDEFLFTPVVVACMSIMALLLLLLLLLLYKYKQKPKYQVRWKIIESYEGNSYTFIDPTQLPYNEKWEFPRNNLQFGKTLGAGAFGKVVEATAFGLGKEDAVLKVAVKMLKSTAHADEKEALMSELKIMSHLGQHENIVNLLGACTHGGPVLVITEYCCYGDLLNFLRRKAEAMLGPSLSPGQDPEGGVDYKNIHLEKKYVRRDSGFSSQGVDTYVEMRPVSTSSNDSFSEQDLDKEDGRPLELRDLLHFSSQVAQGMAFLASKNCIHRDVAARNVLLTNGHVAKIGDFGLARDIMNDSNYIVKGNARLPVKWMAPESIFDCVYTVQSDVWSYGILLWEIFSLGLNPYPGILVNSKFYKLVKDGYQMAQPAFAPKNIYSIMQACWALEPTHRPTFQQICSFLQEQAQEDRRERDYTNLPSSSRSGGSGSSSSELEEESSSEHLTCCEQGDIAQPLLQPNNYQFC

Consider `Cn1ncc(Cl)c1-c1cc(C(=O)N[C@H](CN)Cc2cccc(F)c2)sc1Cl` [GSK2110183], for which the inhibition (commonly the change of the read-out against control, counted positive when it falls) at 0.5 µM against SAPK3(h) is -6%; at FGFR4(h), 0%; against Fms(h), -1%; on HIPK3(h) it was -3%; on PKD2(h), 11%; at PAK6(h), 13%. The inhibition at 0.5 µM against GCK(h) was -1%. Further, the inhibition at 10 µM against SAPK3(h) worked out at 20%; against FGFR4(h) it was 19%; on Fms(h), 3%; at HIPK3(h), 72%; on PKD2(h), 56%; against PAK6(h) it was 73%. The inhibition at 10 µM against GCK(h) was determined as 10%.
Consider `Cn1ncc(Cl)c1-c1cc(C(=O)N[C@H](CN)Cc2ccc(F)c(F)c2)oc1Cl` [GSK2141795], for which the inhibition at 0.5 µM at SAPK3(h) (0.5 µM, read-out: % Inhibition) is -14%; on FGFR4(h) (0.5 µM, read-out: % Inhibition) it was 24%; at Fms(h) (0.5 µM, read-out: % Inhibition) it was -13%; on HIPK3(h) (0.5 µM, read-out: % Inhibition) it was 7%; at PKD2(h) (0.5 µM, read-out: % Inhibition), 17%; at PAK6(h) (0.5 µM, read-out: % Inhibition) it was 11%. Moreover, the inhibition at 0.5 µM on GCK(h) (0.5 µM, read-out: % Inhibition) is -13%. For the same compound, the inhibition at 10 µM at SAPK3(h) (10 µM, read-out: % Inhibition) was 14%; on FGFR4(h) (10 µM, read-out: % Inhibition), 19%; at Fms(h) (10 µM, read-out: % Inhibition) it was 3%; at HIPK3(h) (10 µM, read-out: % Inhibition), 63%; on PKD2(h) (10 µM, read-out: % Inhibition), 66%; at PAK6(h) (10 µM, read-out: % Inhibition), 64%. Further, the inhibition at 10 µM on GCK(h) (10 µM, read-out: % Inhibition) turned out to be 7%.
